Structures can show the parent of a compound that is named as a salt. Where two headings read alike, the source gives them in different places.
What was measured:
[1] = biological target: T1, constitutive NO synthase (cNOS) (Rattus norvegicus, UniProt P29476); assay: Activity to inhibit constitutive NO synthase (cNOS) derived from rat cerebellum; conversion of [3H]-L-arginine to [3H]-L-citrulline; type: biochemical
T1 construct: cNOS was extracted from a rat cerebellum; from tissue; host or cells: rat cerebellum
Procedure: Activity to inhibit constitutive NO synthase (cNOS) derived from rat cerebellum
The inhibition activity was tested according to a method of P. A. Bush et al. (Biochem, Biophys, Res. Commun., 185, 960-966 (1992)), using [³H]-L-arginine as a substrate and taking the conversion of [³H]-L-arginine to [³H]-L-citrulline as an index of the enzyme activity.
The test was conducted as follows: First, cNOS was extracted from a rat cerebellum with a 50 mM Tris-HCl buffer solution (pH 7.4) which contains 0.1 mM EDTA (ethylenediamine tetraacetate), 0.1 mM EGTA (ethyleneglycol bis(β-aminoethyl ether)-tetraacetate), 0.5 mM DTT (dithiothreitol), 1 µM PMSF (phenylmethylsulfonyl fluoride), 1 µM bestatin A, and 1 µM leupeptin. To the cNOS thus extracted, a 50 mM Tris-HCl buffer solution (pH 7.4) containing 10 µM L-arginine, 10 µM NADPH, 2 mM calcium chloride and calmoduline (0.1 µg), together with a test compound and [³H]-L-arginine were added. The mixture was incubated for 10 minutes at 25°C. The reaction was terminated by adding 20 mM sodium acetate buffer solution (pH 5.5) containing 1 mM L-citrulline, 2 mM EDTA, and 0.2 mM EGTA. The reaction solution was passed through a cation-exchange resin. This eluate was combined with another eluate which was obtained thereafter by eluting with water. To the combined eluate, a liquid scintillation cocktail was further added and its radioactivity (A) was measured. At the same time, the radioactivity (B) with respect to the case where the test compound was not added and the radioactivity (C) with respect to the case where an enzyme fraction was not added, were respectively measured. Then, the rate of cNOS inhibition was calculated in accordance with the following equation. The concentration (IC₅₀), at which the test compound can inhibit 50 % of the enzyme activity, were also calculated. Inhibition rate (%) = {1 - (A - C/B - C)} × 100 [formula]

[2] = biological target: T2, inducible NO synthase (iNOS) (Rattus norvegicus, UniProt Q06518); assay: Activity to inhibit inducible NO synthase (iNOS) derived from rat macrophages; conversion of [3H]-L-arginine to [3H]-L-citrulline; type: biochemical; set-up: iNOS was extracted from the macrophages which have been treated with lipopolysaccharide and interferon-γ; endogenous in cells; host or cells: rat peritoneal macrophages treated with lipopolysaccharide and interferon-γ
Procedure: Activity to inhibit inducible NO synthase (iNOS) derived from rat macrophages
According to partly modified method of Y. Yui et al.(J. Biol. Chem., 266 (19), 12544-12547 (1991)), an iNOS fraction was prepared by applying lipopolysaccharide and interferon-γ to peritoneal macrophages. Thereafter, its enzymatic activity was measured based on the conversion of [³H]-L-arginine to [³H]-L-citrulline, in the same manner as in the case of cNOS.
To the iNOS thus extracted, a 50 mM Tris-HCl buffer solution (pH 7.4) containing 150 µM L-arginine, 5 mM NADPH, 5 mM DTT, 0.5 mM 5,6,7,8-tetrahydro-L-biopterin and 5 µM FAD was added together with a test compound and [³H]-L-arginine. The mixture was incubated for 30 minutes at 37°C. Thereafter, the reaction was terminated by adding a 25 mM sodium acetate buffer solution (pH 5.5) containing 1.25 mM L-citrulline, 2.5 mM EDTA and 0.25 mM EGTA. The reaction solution was passed through a cation-exchange resin. The obtained eluate was combined with the additional eluate obtained thereafter by eluting with water, and the radioactivity of the combined eluate was measured. The inhibition rate of the test compound on iNOS was calculated in the same manner as in Test 1. The concentration (IC₅₀) of the test compound required for inhibiting 50 % of the enzyme activity, were calculated.

[3] = biological target: T3, endothelium nitric oxide synthase (eNOS) (Rattus norvegicus, UniProt Q62600); assay: Blood pressure elevating activity in rat by inhibition of eNOS; type: in vivo; settings: dose to elevate mean blood pressure by 25 mmHg; anesthetized rat, administered via femoral vein
T3 construct: from tissue; host or cells: living anesthetized rat
Procedure: Blood pressure elevating activity in rat by inhibition of endothelium nitric oxide synthase (eNOS) A rat was anesthetized with by peritoneal injection of sodium barbital (300 mg/kg) and catheters were inserted into a femoral artery and a femoral vein. Blood pressure was measured through the catheter inserted in the femoral artery and a test compound was administered through the catheter inserted in the femoral vein. […]

[4] = biological target: T4, neuronal NOS (nNOS) (Rattus norvegicus, UniProt P29476); assay: Effect on rat cerebral ischemia model by inhibition of nNOS: reperfusion model; type: in vivo; settings: 10 minutes before occlusion, immediately before and 3 hours after reperfusion, infarct area after 48 hours
T4 construct: from tissue; host or cells: living rat (brain)
From the text: Effect on rat cerebral ischemia model by inhibition of neuronal NOS (nNOS): reperfusion model
A rat (weight: 300 g) was fasted overnight and a middle cerebral artery of the rat was occluded and then reperfused to prepare a cerebral ischemia model, according to the method of Koizumi et al. (Jpn. J. Stroke, 8, 1-8 (1986)). More specifically, a rat breathing naturally was immobilized under anesthesia with a laughing gas - oxygen mixed gas and halothane, and then, underwent cervical median dissection. A silicon-coated nylon thread was inserted into an internal carotid artery from a branched portion at which a right external carotid artery and the internal carotid artery is divided, thereby blocking the middle cerebral artery for 1.5 hours. Thereafter, the occluding of the middle cerebral artery was reperfused by removing a thread. After 48 hours, 6 coronal sections were prepared and stained by means of a triphenyltetrazolium chloride method. Non-stained portions were determined as infarct area. The test compound was intravenously injected 10 minutes before the occlusion of middle cerebral artery, immediately before, and 3 hours after reperfusion. The inhibitory effect of each compound was determined.

[5] = biological target: T2, inducible NO synthase (iNOS); assay: Effect on rat-paw carrageenin edema model by inhibition of iNOS; type: in vivo; settings: oral, 1 hour prior to carrageenin, paw volume 4 hours after induction; for ED50: rat, read-out: Suppression Effect (ED₅₀)
Procedure: Effect on rat-paw carrageenin edema model by inhibition of inducible NO synthase (iNOS)
To a rat's left leg, 1 % carrageenin solution was subcutaneously administered to induce a paw edema. 4 hours after the induction, paw volume was measured. A test compound was orally administered 1 hour prior to the carrageenin administration. The suppression effect of the test compound was determined.

[6] = cNOS extracted from rat cerebellum, 10 µM L-arginine, 10 minutes at 25°C, read-out: IC₅₀
[7] = iNOS from peritoneal macrophages treated with lipopolysaccharide and interferon-γ, 150 µM L-arginine, 30 minutes at 37°C, read-out: IC₅₀

| IC50 [1, 6] [nM] | IC50 [2, 7] [nM] | Molecule | IC50 [1] [nM] | IC50 [2] [nM] | other results |
| --- | --- | --- | --- | --- | --- |
| – | – | NC1=NC(OCc2ccccc2)CCS1 (stereo not drawn) [Example 22, Bis(2-amino-4-benzyloxy-5,6-dihydro-4H-1,3-thiazine) fumarate] | 100 | 600 | – |
| 200 | 500 | CC1(C)CN=C(N)SC1 [Example 16, 2-amino-5,6-dihydro-5,5-dimethyl-4H-1,3-thiazine hydrobromide] | – | – | – |
| 30 | 20 | CCC[C@H]1CCSC(N)=N1 [Example 4, (S)-2-amino-5,6-dihydro-4-propyl-4H-1,3-thiazine hydrobromide] | – | – | – |
| – | – | CC1CCCSC(N)=N1 (stereo not drawn) [Example 12, Bis(2-amino-4,5,6,7-tetrahydro-4-methyl-1,3-thiazepine) fumarate] | 100 | 70 | – |
| 20 | 50 | NC1=NC(O)CCS1 (stereo not drawn) [Example 17, 2-amino-5,6-dihydro-4-hydroxyl-4H-1,3-thiazine hydrochloride] | – | – | – |
| – | – | NC1=N[C@@H](Cc2ccccc2)CCS1 [Example 10, (S)-2-amino-4-benzyl-5,6-dihydro-4H-1,3-thiazine hydrobromide] | 30 | 600 | – |
| – | – | CC1CN=C(N)SC1 (stereo not drawn) [Example 28, 2-amino-5,6-dihyro-5-methyl-4H-1,3-thiazine hydrobromide] | 100 | 200 | – |
| – | – | CCOC1CC(C)SC(N)=N1 (stereo not drawn) [Example 26, Bis(2-amino-4-ethoxy-5,6-dihydro-6-methyl-4H-1,3-thiazine) fumarate] | 80 | 90 | – |
| 30 | 30 | CC(C)OC1CCSC(N)=N1 (stereo not drawn) [Example 20, 2-amino-5,6-dihydro-4-isopropoxy-4H-1,3-thiazine fumarate] | – | – | – |
| 80 | 70 | CC(C)C[C@H]1CCSC(N)=N1 [Example 8, (S)-2-amino-5,6-dihydro-4-isobutyl-4H-1,3-thiazine hydrobromide] | – | – | – |
| 30 | 40 | CCCC[C@@H]1CCSC(N)=N1 [Example 5, (R)-2-amino-4-butyl-5,6-dihydro-4H-1,3-thiazine hydrobromide] | – | – | – |
| 40 | 30 | CCCOC1CCSC(N)=N1 (stereo not drawn) [Example 19, 2-amino-5,6-dihydro-4-propyloxy-4H-1,3-thiazine hydrochloride] | – | – | – |
| 40 | 70 | CC(C)C[C@@H]1CCSC(N)=N1 [Example 7, (R)-2-amino-5,6-dihydro-4-isobutyl-4H-1,3-thiazine hydrobromide] | – | – | – |
| – | – | NC1=NCCS1 [Comparative Example 1, 2-aminothiazoline, reference compound] | – | 2000 | – |
| – | – | CC1CC(OCc2ccccc2)N=C(N)S1 (stereo not drawn) [Example 27, Bis(2-amino-4-benzyloxy-5,6-dihydro-6-methyl-4H-1,3-thiazine), fumarate] | 400 | 400 | – |
| – | – | COC1CCSC(N)=N1 (stereo not drawn) [Example 18, Bis(2-amino-5,6-dihydro-4-methoxy-4H-1,3-thiazine) fumarate] | 20 | 10 | – |
| 20 | 300 | CC(C)[C@@H]1CCSC(N)=N1 [Example 1, (S)-2-amino-5,6-dihydro-4-isopropyl-4H-1,3-thiazine hydrobromide] | – | – | – |
| 30 | 20 | Br.COC[C@@H]1CCSC(N)=N1 [Example 30, (S)-2-amino-5,6-dihydro-4-methoxymethyl-4H-1,3-thiazine hydrobromide] | – | – | ED₂₅ [3]: 0.15 mg/kg; Inhibitory Effect ([4]; dose 10 µg/kg intravenously): ○ (10) |
| – | – | NC1=N[C@H](Cc2ccccc2)CCS1 [Example 9, (R)-2-amino-4-benzyl-5,6-dihydro-4H-1,3-thiazine hydrobromide] | 200 | – | – |
| 300 | – | CC(C)[C@H]1CCSC(N)=N1 [Example 2, (R)-2-amino-5,6-dihydro-4-isopropyl-4H-1,3-thiazine hydrobromide] | – | – | – |
| 100 | 200 | CC1(C)CCN=C(N)S1 [Example 29, 2-amino-5,6-dihydro-6,6-dimethyl-4H-1,3-thiazine hydrochloride] | – | – | – |
| 30 | 70 | CCCC[C@H]1CCSC(N)=N1 [Example 6, (S)-2-amino-4-butyl-5,6-dihydro-4H-1,3-thiazine hydrobromide] | – | – | – |
| – | – | NC1=NC(OCCc2ccccc2)CCS1 (stereo not drawn) [Example 25, Bis(2-amino-5,6-dihydro-4-(2-phenyl)ethyloxy-4H-1,3-thiazine) fumarate] | 100 | 300 | – |
| – | – | Br.CCC[C@@H]1CCSC(N)=N1 [Example 3, (R)-2-amino-5,6-dihydro-4-propyl-4H-1,3-thiazine hydrobromide] | – | – | ED₂₅ [3]: 0.2 mg/kg; Inhibitory Effect ([4]; dose 10 µg/kg intravenously): ○ (10); Suppression Effect [5]: ○; ED50 [5]: 9 mg/kg |
| – | – | CCOC1CCSC(N)=N1 (stereo not drawn) [Example 21, Bis(2-amino-4-ethoxy-5,6-dihydro-4H-1,3-thiazine) fumarate] | 20 | 30 | ED₂₅ [3]: 0.06 mg/kg; Inhibitory Effect ([4]; dose 3 µg/kg intravenously): ○ (3); Suppression Effect [5]: ○; ED50 [5]: 0.5 mg/kg |
| 300 | – | CCC[C@@H]1CCCSC(N)=N1 [Example 13, (R)-2-amino-4,5,6,7-tetrahydro-4-propyl-1,3-thiazepine hydrobromide] | – | – | – |

| Molecule | IC50 [1, 6] [nM] | IC50 [2, 7] [nM] | IC50 [1] [nM] | IC50 [2] [nM] | other results |
| --- | --- | --- | --- | --- | --- |
| (R)-2-amino-4-benzyl-4,5,6,7-tetrahydro-1,3-thiazepine hydrobromide [Example 15] | 600 | – | – | – | – |
